The source of these data is patent US20100092443A1, “NOVEL COMBINATIONS OF NITROGENATED HETEROCYCLIC ANTIBACTERIAL COMPOUNDS WITH OTHER ANTIBACTERIAL COMPOUNDS AND THE USE OF SAME AS DRUGS” (priority 2008, published 2010).

One test has as its system E. aerogenes. The test can be described thus: MIC, dilutions in liquid medium, alone and combined with NXL105. The test is classed as cell-based. The conditions noted are these: E. aerogenes EAR2, Case-R + FEP-R.
Test [1] deals with P. aeruginosa (391 HT2). The test can be described thus: MICs determined on microplates. The test is classed as cell-based, Pseudomonas aeruginosa. The conditions noted are these: sensitive strain P. aeruginosa 391 HT2. On the procedure:
(§1) The minimum inhibitory concentrations (MICs) of the products to be tested (products alone and combinations) are determined in advance. • For each concentration of product to be tested as well as the control stock, an Erlenmeyer flask containing 18.5 ml Muller-Hinton medium (Ca^++) is prepared. • From an overnight culture in broth or a bacterial suspension of OD (optical density)=1, a 1/100 dilution is prepared. • The sample is cultured with agitation for 2 h at 37° C. • OD is measured: if >0.5, the sample is diluted to 1/10. • Each Erlenmeyer flask is inoculated with 1 ml of the agitated culture or its dilution. The initial inoculum should be 1×10^6 CFU/ml. • The various antibiotic solutions are added at a volume of 0.5 ml and 0.5 ml of medium in the control Erlenmeyer flask. • With a volume of 0.1 ml, the control Erlenmeyer flask is numbered=TO. • The flask is incubated at 37° C. with agitation. • At each sampling point (2, 4, 6, 24, 48 hours), a volume of 0.1 ml is sampled from each Erlenmeyer flask and numbered. • Plates for all the numbered samples are incubated (24 h-48 h) at 37° C.
Bactericidal activity was evaluated on a sensitive strain of P. aeruginosa (391 HT2)

For test [2], the system named is P. aeruginosa (391 HT2). In words: MICs in a volume of 10 ml, bactericidal conditions (exponential bacterial growth). The test is classed as cell-based, Pseudomonas aeruginosa. The protocol:
as §1
For the bactericidal tests, MICs are determined in a volume of 10 ml-bactericidal conditions (exponential bacterial growth): […]

Counter-ions that a name gives are not always drawn. Like-named read-outs stand apart in the source and are kept apart here.

Regarding `Cn1ncc2c1[C@@H](CN)N1C[C@H]2N(OS(=O)(=O)O)C1=O` (relative stereo) [NXL105, Sodium and Trifluoroacetate Salts of trans 8-(aminomethyl)-4,8-dihydro-1-methyl-5-(sulphooxy)-4,7-methano-7H-pyrazolo[3,4-e][1,3]diazepin-6(5H)-one], in the test with E. aerogenes, the minimal inhibitory concentration (MIC) (commonly the lowest concentration that inhibits growth of the organism) was >32 µg/mL. For the same compound, the “MIC determined on microplates” value with P. aeruginosa (391 HT2) [1] turned out to be 0.25 µg/mL. Further, the “MIC in a volume of 10 ml, bactericidal conditions” value in the test on P. aeruginosa (391 HT2) [2] is 0.25 µg/mL.

With `CC(C)(O/N=C(\C(=O)N[C@@H]1C(=O)N2C(C(=O)[O-])=C(C[n+]3ccccc3)CS[C@H]12)c1csc(N)n1)C(=O)O` [Ceftazidime], the minimal inhibitory concentration (MIC) is > 32 µg/mL with E. aerogenes (Klebsiella aerogenes, 24 h, read-out: MIC); 2 µg/mL in the test on P. aeruginosa (391 HT2) [1] (Pseudomonas aeruginosa); 8 µg/mL in the test with P. aeruginosa (391 HT2) [2] (Pseudomonas aeruginosa).
